Measurements: patent publication US20260242843A1, “ASSAY SYSTEM FOR […] ANTIVIRAL AGENT USING INHIBITION OF VIRUS-DERIVED PROTEASE AS INDICATOR” (TOYAMA PREFECTURAL UNIVERSITY, priority 2023, published 2026)

Legend:
IAPV protease = test: Measurement of IAPV protease activity using purified enzyme (fluorescent peptide substrate); assay type: biochemical, Israeli acute paralysis virus (IAPV); settings: inhibitors at final concentration of 1 mM, pre-incubated at 37° C. for 1 hour; fluorescence in absence of inhibitors = 100%
Experimental: RNA was extracted from the midgut of virus-infected honey bees using ISOGEN II (Nippon Gene Co., Ltd.), and the extracted RNA was reverse-transcripted using PrimeScript RT reagent Kit (Takara) to obtain midgut-derived cDNA. Subsequently, the midgut-derived cDNA was subjected to PCR reaction (30 cycles of 98° C. for 30 seconds, 60° C. for 30 seconds, and 68° C. for 2 minutes) using KOD FX Neo (TOYOBO Co., Ltd.) with IAPV Protease Primer-F1 (SEQ ID NO: 59) and IAPV Protease Primer-R (SEQ ID NO: 60). As a result, a cDNA fragment of IAPV protease was obtained, consisting of the base sequence of SEQ ID NO: 57 encoding the amino acid sequence of SEQ ID NO: 58. The cDNA fragment of the IAPV protease was subjected to restriction enzyme treatment with BamHI and HindIII. The expression vector pET21a (Merck) was also subjected to restriction enzyme treatment with BamHI and HindIII. The restriction enzyme-treated cDNA fragment of the IAPV protease and the restriction enzyme-treated pET21a DNA fragment were subjected to a ligation reaction at 16° C. for 1 hour using Ligation High Ver. 2 (TOYOBO Co., Ltd.) to join the vector and the cDNA fragment, and the ligation product was used to transform E. coli. Colony PCR was performed, and an expression vector containing the cDNA fragment of the IAPV protease was obtained. E. coli Rosseta-gami B (Merck) was transformed with the expression vector of the IAPV protease. A preculture was prepared in 50 ml of LB medium containing ampicillin, followed by subculturing in 500 ml of LB medium containing ampicillin. Then, the culture was grown until the absorbance at 600 nm reached 0.5, at which point isopropyl β-D-thiogalactopyranoside (IPTG) was added to a final concentration of 1 mM. The culture was then incubated at 15° C. for 24 hours. The culture was centrifuged (8000 rpm, 10 minutes, 4° C.) to collect E. coli cells. The collected E. coli cells were dissolved in 10 ml of a sonication buffer (50 mM Tris-HCl, pH 8.0; 50 mM NaCl; 1 mM EDTA; 1 mM DTT), and disrupted by ultrasonic disruption (sonication). The disruption solution was centrifuged (12000 rpm, 10 minutes, 4° C.) to obtain a supernatant of this bacterial cell disruption solution. The IAPV protease was then purified from the resulting supernatant to yield a purified protein solution. Purification was carried out by cation exchange chromatography using HiPrep SP XL 16/10 (Cytiva) with a 20 mM Tris-HCl (pH 7.5) buffer and a 20 mM Tris-HCl (pH 7.5) buffer containing 1 M NaCl, and by gel filtration chromatography using HiLoad 16/600 Superdex 200 (Cytiva) with a 50 mM phosphate buffer (pH 7.0) containing 0.15 M NaCl.
As a substrate for the measurement of IAPV protease activity, either Dnp-PNDIV DVTMQK(Nma)-NH2 or Nma-[…] (Dnp)-NH2, in which a peptide was linked to a fluorescent substrate, was synthesized and used. When the activity measurement substrate is cleaved by the protease, it emits fluorescence. The activity measurement substrate was prepared at a concentration of 20 μM in an assay buffer (50 mM citric acid buffer, pH 6.0; 150 mM NaCl; 1 mM EDTA; 1 mM DTT). The purified protein solution of the IAPV protease obtained in Example 10 was used as the enzyme solution. 50 μl of the assay buffer containing the activity measurement substrate was mixed with 50 μl of the enzyme solution, and the mixture was reacted at 37° C. for 30 minutes in a 96-well black plate, in the presence or absence of various inhibitors listed in Table 4. Fluorescence intensity was then measured using a TECAN fluorescence plate reader (Tecan Japan Co., Ltd.) at an excitation wavelength of 340 nm and a fluorescence emission wavelength of 440 nm. The various inhibitors were prepared at a final concentration of 1 mM and pre-incubated at 37° C. for 1 hour prior to the enzymatic reaction.

[1] = test system: virus-infected honey bees; test: Suppression of individual honey bee mortality by agent administration (aseptic in vivo agent evaluation rearing method); settings: for viability compared to the control group: 100 μM in 50% sucrose solution, virus-infected honey bee population No. 2, FIG. 15
Experimental: A new aseptic in vivo agent evaluation rearing method for honey bees was established. Incubators and rearing boxes were sterilized with 70% ethanol after cleaning. Each hive box was populated with 30 to 35 honey bees. The honey bees were fed with a 50% sucrose solution (aseptically dissolved in sterile water) and a 50% sucrose solution containing pollen dissolved therein. The rearing temperature was maintained at 30° C. The 50% sucrose solutions were replaced daily, and the number of individual honey bees was measured at each replacement. Agents were administered dissolved in the 50% sucrose solutions. At the time when the viability had decreased to 50% or less of the initial level, total RNA was collected from the surviving individuals, and histochemical analyses were performed on the midgut and other tissues. Pharmacological analyses were conducted using the collected RNA, tissues, and blood.
E-64 ([(2S,3S)-3-carboxyoxirane-2-carbonyl]-L-leucine (4-guanidinobutyl)amide hemihydrate, manufactured by PEPTIDE INSTITUTE, INC.) was dissolved in a 50% sucrose solution at concentrations of 200 μM, 100 μM, and 50 μM. The resulting solutions were administered to honey bees in the honey bee populations Nos. 2 and 5, in which viral infection had been observed. Only 50% sucrose was administered to a control group (None). The E-64-containing solutions were replaced daily, and changes in the number of individual honey bees were measured at each replacement. FIGS. 9 and 10 show the results. Rearing was conducted using the aseptic in vivo agent evaluation rearing method, which has been described above.
E-64c (manufactured by PEPTIDE INSTITUTE, INC.) or E-64d (manufactured by PEPTIDE INSTITUTE, INC.) was dissolved in a 50% sucrose solution at a concentration of 100 μM. The resulting solutions were administered to honey bees in the honey bee population No. 2, in which viral infection had been observed. […] The solution containing E-64c or E-64d was replaced daily, and changes in the number of individual honey bees were measured at each replacement. […]

[2] = test system: fusion protein of Maltose Binding Protein (MBP)-IAPV protease; test: IAPV protease activity measurement using crude enzyme solution of expressed MBP-IAPV protease fusion protein; assay type: biochemical, Israeli acute paralysis virus (IAPV); settings: in the presence of E-64, absence of E-64 = 100%
Experimental: Midgut-derived cDNA was obtained from virus-infected honey bees in the same manner as in Example 10 and then subjected to PCR reaction (30 cycles of 98° C. for 30 seconds, 60° C. for 30 seconds, and 68° C. for 2 minutes) using KOD FX Neo (TOYOBO Co., Ltd.) with IAPV Protease Primer-F2 (SEQ ID NO: 61) and IAPV Protease Primer-R (SEQ ID NO: 60). As a result, a cDNA fragment of IAPV protease was obtained, consisting of the base sequence of SEQ ID NO: 57 encoding the amino acid sequence of SEQ ID NO: 58. The cDNA fragment of the IAPV protease was subjected to restriction enzyme treatment with BamHI and HindIII. […] Then, the culture was grown until the absorbance at 600 nm reached 0.5, at which point IPTG was added to a final concentration of 1 mM. […]
Subsequently, using a crude enzyme solution of the expressed fusion protein of IAPV protease as the enzyme solution, the IAPV protease activity was measured using the same method as in Example 11, in the presence or absence of E-64.
The fluorescence intensity measured in the absence of E-64 was reduced by the addition of E-64. When the fluorescence intensity measured in the absence of E-64 is defined as 100% relative activity, the relative activity of IAPV protease calculated from the fluorescence intensity measured in the presence of E-64 was 9% (FIG. 14). […]

[3] = test system: virus-infected honey bees; test: Recovery from intestinal tract damage in honey bees (BPB administration test); assay type: in vivo; settings: E-64 100 μM in 50% sucrose, reared 10 days; BPB 10 mg/ml for 24 hours; FIG. 13
Experimental: Virus-infected and uninfected honey bees were reared for 10 days while receiving 50% sucrose. During the rearing period, Bromophenol Blue (BPB) (FUJIFILM Wako Pure Chemical Corporation) was dissolved in a 50% sucrose solution at a concentration of 10 mg/ml and administered to the virus-infected and uninfected honey bees for 24 hours. When the viability of the virus-infected group had decreased to approximately 50%, relative to the number of individual honey bees before rearing set to 100%, BPB was administered to each group of honey bees. After BPB administration, blood was collected from honey bees (≥30 individuals), and the concentration of BPB in the blood was measured by absorbance at 500 nm using a microvolume spectrophotometer, NanoDrop One (ThermoFisher Scientific).
Virus-infected honey bees were divided into a control group (None) to which 50% sucrose was administered, and an administered group (E-64) to which a solution of E-64 (PEPTIDE INSTITUTE, INC.) dissolved at 100 μM in 50% sucrose was administered. The honey bees were reared for 10 days. […] After BPB administration, blood was collected from honey bees (≥30 individuals), and the concentration of BPB in the blood was measured by absorbance at 500 nm using a microvolume spectrophotometer, NanoDrop One (ThermoFisher Scientific).

Compound | Relative Activity (%) of IAPV protease (IAPV protease) [%] | further results
CCCNC(=O)[C@H]1O[C@@H]1C(=O)N[C@H](C(=O)N1CCC[C@H]1C(=O)OC)[C@@H](C)CC [CA074 methyl ester, [(2S,3S)-3-propylcarbamoyloxirane-2-carbonyl]-L-isoleucyl-L-proline methyl ester] | 32 | 
CCCNC(=O)[C@H]1O[C@@H]1C(=O)N[C@H](C(=O)N1CCC[C@H]1C(=O)O)[C@@H](C)CC [CA074, [(2S,3S)-3-propylcarbamoyloxirane-2-carbonyl]-L-isoleucyl-L-proline] | 4 | 
CC(C)CCNC(=O)[C@H](CC(C)C)NC(=O)[C@H]1O[C@@H]1C(=O)O [E-64c, [(2S,3S)-3-carboxyoxirane-2-carbonyl]-L-leucine (3-methylbutyl)amide] | 22 | viability compared to the control group [1]: higher viability compared to the control group
CCOC(=O)[C@H]1O[C@@H]1C(=O)N[C@@H](CC(C)C)C(=O)NCCC(C)C [E-64d, [(2S,3S)-3-ethoxycarbonyloxirane-2-carbonyl]-L-leucine (3-methylbutyl)amide] | 23 | viability compared to the control group [1]: higher viability compared to the control group
CCOC(=O)[C@H]1O[C@@H]1C(=O)N[C@@H](CC(C)C)C(=O)NCCc1ccc(O)cc1 [JPM-OEt] | 17 | 
O=C(O)c1cc2ccccc2s1 [TNCA, benzo[b]thiophene-2-carboxylic acid] | 71 | 
O=C(NC1CC1)C(=O)C(Cc1ccccc1)NC(=O)[C@H]1CCC(=O)N1Cc1ccccc1 (some centres unmarked) [alicapistat] | 22 | 
Cc1nc(-c2ccccc2F)c(C(=O)NC(Cc2ccccc2)C(=O)C(N)=O)o1 (centres unmarked) [dazcapistat] | 29 | 
[(2S,3S)-3-carboxyoxirane-2-carbonyl]-L-leucine (4-guanidinobutyl)amide hemihydrate [E-64] | 5 | relative activity of IAPV protease [2]: 9%; individual honey bee mortality (viability) ([1]; E-64 at 200 μM, 100 μM, 50 μM in 50% sucrose solution, virus-infected honey bee populations Nos. 2 and 5, FIGS. 9 and 10): suppressed individual honey bee mortality; concentration of BPB in the blood (absorbance at 500 nm) [3]: reduced the concentration of BPB in the blood
